Measurements taken from patent US11534441B2, “MAP4K1 inhibitors” (Blueprint Medicines Corporation, priority 2020, dated 2022).

Assays:
[1] = test system: expanded CD3+ T cells; experiment: T cell enhancement of cytokines: IL2 measurement (HTRF) in expanded CD3+ T cells stimulated with anti-CD3/anti-CD28; format: cell-based, human; settings: IL-2 measurement
Experimental: T cells are isolated from whole blood of healthy donors by immunomagnetic negative selection following manufacture's protocol (StemCell Technologies, human T cell isolation kit). Purity of isolated cells is assessed by flow cytometry and yields 95-98% CD3^+ T cells. For expansion of T cells, 1×10^6 cells/well are plated in serum free cell expansion media (ThermoFisher) containing 30 U of recombinant human IL2 (R&D) and stimulated with 25 ul of CD3/CD28 beads (Invitrogen) in 24 well plates for 3-4 days. T cells are then expanded in 175 cm flasks and maintained at a cell density of 1 to 2.5×10^6 cells/ml days by addition of ⅔ of fresh media every 2-3 days. After 10-14 days, cells are frozen in BamBanker freezing media (Thermo) and stored in liquid nitrogen.
For IL2 measurement, expanded CD3^+ T cells are dispensed at 100K cells/well (cultured in X-VIVO 10 Serum-free media) and are stimulated with plate-bound anti-CD3 and soluble anti-CD28 in the presence of vehicle or compound of the disclosure at various concentrations for 24 h. As outlined in the manufacturer's protocol (Cisbio), 16 μL of conditioned media is transferred to a white 384-well low volume plate. Following a 24 h incubation with the anti-IL2 antibodies, the homogenous time resolved fluorescence (HTRF) is measured.

[2] = biological target: MAP4K1 (HPK1) (Homo sapiens (Human), UniProt Q92918); experiment: MAP4K1 (HPK1) biochemical enzymatic activity, electrophoretic mobility shift (EZReader 2), ATP at APPKM (26 μM)
Procedure, shortened: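 Enzyme at 0.1-15 nM was incubated with 1.5 μM fluorescent peptide and ATP at the apparent Km (26 μM) in HEPES pH 7.5, MgCl2, DTT and Brij 35. The reaction ran at 25° C for 60-180 min with a 10-point, 4-fold compound series (1% DMSO) and was stopped with EDTA. Substrate and product peptides were resolved by microfluidic mobility shift, and their peak ratio gave activity.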

[3] = Homo sapiens, T-cell, class designation
[4] = Homo sapiens, T-cell, numeric value

Chain of MAP4K1 (HPK1) (Q92918 whole entry): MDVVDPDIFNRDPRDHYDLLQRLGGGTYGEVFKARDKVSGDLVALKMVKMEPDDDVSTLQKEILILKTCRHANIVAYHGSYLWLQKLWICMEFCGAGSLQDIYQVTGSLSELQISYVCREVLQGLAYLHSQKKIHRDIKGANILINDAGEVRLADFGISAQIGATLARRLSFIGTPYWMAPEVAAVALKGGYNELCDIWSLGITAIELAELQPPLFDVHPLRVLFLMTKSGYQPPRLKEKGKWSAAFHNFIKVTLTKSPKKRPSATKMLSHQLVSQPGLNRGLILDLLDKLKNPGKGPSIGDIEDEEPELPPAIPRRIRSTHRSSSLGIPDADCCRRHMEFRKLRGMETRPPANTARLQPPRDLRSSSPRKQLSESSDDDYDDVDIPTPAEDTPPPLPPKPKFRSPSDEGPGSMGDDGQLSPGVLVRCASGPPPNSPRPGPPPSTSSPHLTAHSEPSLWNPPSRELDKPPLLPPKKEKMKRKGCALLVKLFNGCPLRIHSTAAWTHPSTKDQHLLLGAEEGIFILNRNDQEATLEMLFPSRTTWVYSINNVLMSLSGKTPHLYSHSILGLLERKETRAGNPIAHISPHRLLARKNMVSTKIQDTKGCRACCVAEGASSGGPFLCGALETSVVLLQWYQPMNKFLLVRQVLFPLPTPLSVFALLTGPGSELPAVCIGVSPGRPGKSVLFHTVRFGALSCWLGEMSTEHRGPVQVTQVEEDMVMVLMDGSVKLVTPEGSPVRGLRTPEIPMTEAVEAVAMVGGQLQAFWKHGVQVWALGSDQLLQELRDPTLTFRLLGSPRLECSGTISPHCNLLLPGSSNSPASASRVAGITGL

SMILES | EC50 ([1]; class designation) | EC50 ([1]; numeric value) | IC50 ([2]; class designation) | IC50 ([2]; numeric value) | EC50 [1, 3] | EC50 [1, 4]
COc1ncc(C(C)(C)N)c2cc(Nc3ccnc(C(C)(C)C)n3)ncc12 [Compound 3, 5-(2-Aminopropan-2-yl)-N-(2-(tert-butyl)pyrimidin-4-yl)-8-methoxy-2,7-naphthyridin-3-amine] | – | – | – | 0.36 nM | > 55 nM | 108 nM
COc1ccc(C(C)(C)N)c2cc(Nc3ccnc(C(C)(C)F)n3)ncc12 [Compound 5, 5-(2-Aminopropan-2-yl)-N-(2-(2-fluoropropan-2-yl)pyrimidin-4-yl)-8-methoxyisoquinolin-3-amine] | – | – | 0.31 to 1 nM | 0.37 nM | 35.1 to 45 nM | 37.1 nM
COc1ncc(C(C)(C)N)c2cc(Nc3ccc4c(n3)CCOC4=O)ncc12 [Compound 12] | – | – | 0.31 to 1 nM | 0.31 nM | < 35 nM | 11 nM
CC[C@@H](C)n1nc(Nc2cc3c(C(C)(C)N)cnc(OC)c3cn2)ccc1=O [Compound 15] | – | – | 0.31 to 1 nM | – | < 35 nM | 30.9 nM
CC[C@H](C)c1nc(Nc2cc3c(C(C)(C)N)cnc(OC)c3cn2)ccc1C#N [Compound 19] | < 35 nM | 27.3 nM | < 0.3 nM | 0.3 nM | – | –
CC[C@H](C)c1nc(Nc2cc3c(C(C)(C)N)cnc(OC)c3cn2)cnc1C#N [Compound 20] | 45.1 to 55 nM | 51.1 nM | 0.31 to 1 nM | 0.73 nM | – | –
COc1ncc(C(C)(C)N)c2cc(Nc3ccc(C#N)c(C(C)(C)F)n3)ncc12 [Compound 28] | – | – | 0.31 to 1 nM | 0.67 nM | < 35 nM | 31.4 nM
COc1ncc(C(C)(C)N)c2cc(Nc3ccc4c(n3)CC3(CC3)OC4=O)ncc12 [Compound 33] | – | – | < 0.3 nM | 0.13 nM | < 35 nM | 9.3 nM
COc1ncc(C(C)(C)N)c2cc(Nc3ccc4c(n3)CC(C)(C)CC4=O)ncc12 [Compound 34, 2-((5-(2-Aminopropan-2-yl)-8-methoxy-2,7-naphthyridin-3-yl)amino)-7,7-dimethyl-7,8-dihydroquinolin-5 (6H)-one] | – | – | < 0.3 nM | 0.24 nM | 35.1 to 45 nM | 45.6 nM
CNc1ncc(C(C)(C)N)c2cc(Nc3ccc4c(n3)CC(C)(C)OC4=O)ncc12 [Compound 35] | < 35 nM | 23.5 nM | 0.31 to 1 nM | 0.41 nM | – | –
COc1ncc(C(C)(C)N)c2cc(Nc3ccc4c(n3)[C@@H](C)[C@H](C)OC4=O)ncc12 [Compound 37] | – | – | < 0.3 nM | 0.14 nM | < 35 nM | 1.9 nM
COc1ncc(C(C)(C)N)c2cc(Nc3ccc4c(n3)[C@H](C)[C@@H](C)OC4=O)ncc12 [Compound 38] | – | – | < 0.3 nM | 0.2 nM | < 35 nM | 5.8 nM
CCOc1ncc(C(C)(C)N)c2cc(Nc3ccc4c(n3)C(C)(C)OC4=O)ncc12 [Compound 45] | – | – | 0.31 to 1 nM | 1.03 nM | > 55 nM | 70.3 nM
COc1cnc(C(C)(C)N)c2cc(Nc3ccc4c(n3)CC(C)(C)OC4=O)ncc12 [Compound 46, 2-((5-(2-Aminopropan-2-yl)-8-methoxy-2,6-naphthyridin-3-yl)amino)-7,7-dimethyl-7,8-dihydro-5H-pyrano[4,3-b]pyridin-5-one] | – | – | 0.31 to 1 nM | 0.94 nM | < 35 nM | 34.3 nM
CNc1ncc(C(C)(C)N)c2cc(Nc3cnc(C#N)c(N4CCC[C@@H]4C)n3)ncc12 [Compound 48] | – | – | 1.1 to 10 nM | 1.72 nM | > 55 nM | 136 nM
COc1ncc(C(C)(C)N)c2cc(Nc3ccc4c(n3)[C@@H](C)C(C)(C)OC4=O)ncc12 [Compound 56] | – | – | < 0.3 nM | 0.1 nM | < 35 nM | 6.6 nM
CCOc1ncc(C(C)(C)N)c2cc(Nc3ccc4c(n3)[C@@H](C)[C@H](C)OC4=O)ncc12 [Compound 57] | – | – | < 0.3 nM | 0.16 nM | < 35 nM | 5.1 nM
CCOc1ncc(C(C)(C)N)c2cc(Nc3ccc4c(n3)[C@H](C)[C@@H](C)OC4=O)ncc12 [Compound 58] | – | – | 0.31 to 1 nM | 0.39 nM | < 35 nM | 20.4 nM
CCOc1ncc(C(C)(C)N)c2cc(Nc3ccc4c(n3)[C@@H](C)C(C)(C)OC4=O)ncc12 [Compound 67] | – | – | < 0.3 nM | 0.12 nM | < 35 nM | 6.2 nM
CCOc1ncc(C(C)(C)N)c2cc(Nc3ccc4c(n3)[C@H](C)C(C)(C)OC4=O)ncc12 [Compound 68] | – | – | < 0.3 nM | 0.27 nM | < 35 nM | 29.5 nM
C[C@H]1c2nc(Nc3cc4c(C(C)(C)N)cnc(OC5CC5)c4cn3)ccc2C(=O)OC1(C)C [Compound 70] | – | – | 0.31 to 1 nM | 0.35 nM | < 35 nM | 20.6 nM

Continued, values first:

EC50 ([1]; class designation) | EC50 ([1]; numeric value) | IC50 ([2]; class designation) | IC50 ([2]; numeric value) | EC50 [1, 3] | EC50 [1, 4] | SMILES
35.1 to 45 nM | 38.8 nM | 1.1 to 10 nM | 2.92 nM | – | – | CC[C@@](C)(N)c1cnc(OCC(F)(F)F)c2cnc(Nc3ccc4c(n3)[C@@H](C)[C@H](C)OC4=O)cc12 (single isomer, unassigned) [Compound 182]
< 35 nM | 33.4 nM | < 0.3 nM | 0.27 nM | – | – | COCC(C)(N)c1cnc(OC2CC2)c2cnc(Nc3ccc4c(n3)[C@@H](C)[C@H](C)OC4=O)cc12 (single isomer, unassigned) [Compound 184, (7S,8R)-2-((5-((R)-2-Amino-1-methoxypropan-2-yl)-8-cyclopropoxy-2,7-naphthyridin-3-yl)amino)-7,8-dimethyl-7,8-dihydro-5H-pyrano[4,3-b]pyridin-5-one or (7S,8R)-2-((5-((S)-2-amino-1-methoxypropan-2-yl)-8-cyclopropoxy-2,7-naphthyridin-3-yl)amino)-7,8-dimethyl-7,8-dihydro-5H-pyrano[4,3-b]pyridin-5-one]
– | – | 0.31 to 1 nM | 0.91 nM | < 35 nM | 21.7 nM | COc1ncc(C(C)(C)N)c2cc(Nc3ccnc(C(C)(C)F)n3)ncc12 [Compound 7]
– | – | 0.31 to 1 nM | 0.33 nM | < 35 nM | 10.9 nM | COc1ncc(C(C)(C)N)c2cc(Nc3ccc4c(n3)CCNC4=O)ncc12 [Compound 11]
45.1 to 55 nM | 51 nM | 0.31 to 1 nM | 0.64 nM | – | – | CC[C@H](C)n1nc(Nc2cc3c(C(C)(C)N)cnc(OC)c3cn2)ccc1=O [Compound 14]
45.1 to 55 nM | 48.7 nM | 0.31 to 1 nM | 0.85 nM | – | – | CC[C@@H](C)c1nc(Nc2cc3c(C(C)(C)N)cnc(OC)c3cn2)cnc1C#N [Compound 21]
– | – | 0.31 to 1 nM | 0.55 nM | < 35 nM | 14 nM | COc1ncc(C(C)(C)N)c2cc(Nc3ccc4c(n3)C(C)(C)OC4=O)ncc12 [Compound 26]
– | – | < 0.3 nM | 0.17 nM | < 35 nM | 15.3 nM | COc1ncc(C(C)(C)N)c2cc(Nc3ccc4c(n3)CC(C)(C)OC4=O)ncc12 [Compound 36]
– | – | 0.31 to 1 nM | 0.36 nM | < 35 nM | 17.2 nM | CCNc1ncc(C(C)(C)N)c2cc(Nc3ccc4c(n3)CC(C)(C)OC4=O)ncc12 [Compound 53]
– | – | < 0.3 nM | 0.25 nM | < 35 nM | 9.3 nM | CCOc1ncc(C(C)(C)N)c2cc(Nc3ccc4c(n3)CC(C)(C)OC4=O)ncc12 [Compound 54]
– | – | < 0.3 nM | 0.18 nM | < 35 nM | 11.6 nM | COc1ncc(C(C)(C)N)c2cc(Nc3ccc4c(n3)[C@H](C)C(C)(C)OC4=O)ncc12 [Compound 55]
– | – | 0.31 to 1 nM | 0.44 nM | 35.1 to 45 nM | 42.9 nM | CC1(C)Cc2nc(Nc3cc4c(C(C)(C)N)cnc(OC5CC5)c4cn3)ccc2C(=O)O1 [Compound 64]
– | – | < 0.3 nM | 0.18 nM | < 35 nM | 8.1 nM | C[C@@H]1OC(=O)c2ccc(Nc3cc4c(C(C)(C)N)cnc(OC5CC5)c4cn3)nc2[C@H]1C [Compound 66, (7S, 8R)-2-((5-(2-aminopropan-2-yl)-8-cyclopropoxy-2,7-naphthyridin-3-yl)amino)-7,8-dimethyl-7,8-dihydro-5H-pyrano[4,3-b]pyridin-5-one]
– | – | 0.31 to 1 nM | 0.88 nM | 45.1 to 55 nM | 52.8 nM | CC(C)Oc1ncc(C(C)(C)N)c2cc(Nc3ccc4c(n3)CC(C)(C)OC4=O)ncc12 [Compound 69]
– | – | < 0.3 nM | 0.11 nM | < 35 nM | 7.9 nM | C[C@@H]1c2nc(Nc3cc4c(C(C)(C)N)cnc(OC5CC5)c4cn3)ccc2C(=O)OC1(C)C [Compound 71]
